Measurements reported in PubChem BioAssay AID330 (DTP/NCI, 2004).
Where “and” joins values, the source holds several entries; their conditions need not be identical. Equal entries are not always repeated. Toxic doses and inconclusive results are not listed. Rule for the calls: active = survival T/C of 150% or more; inactive = T/C below 125% in these data.

Test system: P388 leukemia ip, CD2F1 mice, survival T/C
Assay: NCI In Vivo Anticancer Drug Screen. Data for tumor model P388 Leukemia (intraperitoneal) in CD2F1 (CDF1) mice
Conditions: endpoint: median survival time, higher = longer survival
Outline: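 Mice carrying the transplanted tumor received test compound or vehicle. Survival was recorded in each group, and the value is the treated-group measurement divided by that of the vehicle-treated control group.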

[1] = dose: 50.0 mg/kg/injection, schedule: Q01DX009 (ip), vehicle: saline with Tween-80

Measured: T/C

CCCCn1c(Cl)c(/C=N\Nc2ccc([N+](=O)[O-])cc2[N+](=O)[O-])c2ccccc21
inactive: dose: 100.0 mg/kg/injection, schedule: Q04DX003 (ip), vehicle: saline with Tween-80 94 % of control | dose: 200.0 mg/kg/injection, schedule: Q04DX003 (ip), vehicle: saline with Tween-80 90 % of control | dose: 400.0 mg/kg/injection, schedule: Q04DX003 (ip), vehicle: saline with Tween-80 88 % of control

Clc1ccc(SCc2csc(-c3ccc(Cl)cc3)n2)cc1
inactive: dose: 50.0 mg/kg/injection, schedule: Q01DX009 (ip), vehicle: saline 104 % of control | dose: 100.0 mg/kg/injection, schedule: Q01DX009 (ip), vehicle: saline 111 % of control | dose: 200.0 mg/kg/injection, schedule: Q01DX009 (ip), vehicle: saline 104 % of control

CCCCc1n(O)c(-c2ccccc2)c(C)[n+]1[O-]
inactive: dose: 12.5 mg/kg/injection, schedule: Q01DX009 (ip), vehicle: saline with Tween-80 100 % of control | dose: 25.0 mg/kg/injection, schedule: Q01DX009 (ip), vehicle: saline with Tween-80 92 % of control | [1] 88 % of control and 91 % of control

O=C1NC(=O)C(CCO)(c2ccccc2)C(=O)N1
inactive: dose: 60.0 mg/kg/injection, schedule: Q01DX005 (ip), vehicle: saline with Tween-80 88 % of control | dose: 120.0 mg/kg/injection, schedule: Q01DX005 (ip), vehicle: saline with Tween-80 105 % of control | dose: 240.0 mg/kg/injection, schedule: Q01DX005 (ip), vehicle: saline with Tween-80 100 % of control

NCCCNc1cc(O)cc2cccnc12
inactive: dose: 50.0 mg/kg/injection, schedule: Q01DX005 (ip), vehicle: saline 93 % of control | dose: 100.0 mg/kg/injection, schedule: Q01DX005 (ip), vehicle: saline 95 % of control

CC1(C)CNC(=S)N1Cc1ccccc1
inactive: dose: 50.0 mg/kg/injection, schedule: Q01DX009 (ip), vehicle: suspension in saline 100 % of control | dose: 100.0 mg/kg/injection, schedule: Q01DX009 (ip), vehicle: suspension in saline 94 % of control | dose: 200.0 mg/kg/injection, schedule: Q01DX009 (ip), vehicle: suspension in saline 100 % of control

CC(=O)Nc1cc([N+]#N)ccc1S(=O)(=O)O
inactive: [1] 109 % of control | dose: 100.0 mg/kg/injection, schedule: Q01DX009 (ip), vehicle: saline with Tween-80 93 % of control | dose: 200.0 mg/kg/injection, schedule: Q01DX009 (ip), vehicle: saline with Tween-80 89 % of control

CCOC(=O)Nc1cc2c(c(N)n1)N=C(c1ccccc1)CN2
inactive: dose: 2.6 mg/kg/injection, schedule: Q04DX003 (ip), vehicle: saline with Tween-80 119 % of control | dose: 3.0 mg/kg/injection, schedule: Q01DX005 (ip), vehicle: saline with Tween-80 117 % of control and 123 % of control | dose: 6.0 mg/kg/injection, schedule: Q01DX009 (ip), vehicle: saline with Tween-80 105 % of control | dose: 6.25 mg/kg/injection, schedule: Q01DX001 (ip), vehicle: saline with Tween-80 118 % of control
active: dose: 3.0 mg/kg/injection, schedule: Q01DX009 (ip), vehicle: saline with Tween-80 156 % of control | dose: 6.0 mg/kg/injection, schedule: Q04DX003 (ip), vehicle: saline with Tween-80 151 % of control | dose: 9.0 mg/kg/injection, schedule: Q04DX003 (ip), vehicle: saline with Tween-80 173 % of control | dose: 12.0 mg/kg/injection, schedule: Q01DX001 (ip), vehicle: saline with Tween-80 151 % of control and 157 % of control | dose: 12.5 mg/kg/injection, schedule: Q01DX001 (ip), vehicle: saline with Tween-80 150 % of control | dose: 18.0 mg/kg/injection, schedule: Q01DX001 (ip), vehicle: saline with Tween-80 168 % of control

Oc1ccccc1/C=N/Nc1ccc2ccccc2n1
inactive: dose: 25.0 mg/kg/injection, schedule: Q04DX003 (ip), vehicle: saline 96 % of control | dose: 50.0 mg/kg/injection, schedule: Q04DX003 (ip), vehicle: saline 95 % of control | dose: 100.0 mg/kg/injection, schedule: Q04DX003 (ip), vehicle: saline 102 % of control | dose: 200.0 mg/kg/injection, schedule: Q04DX003 (ip), vehicle: saline 93 % of control

Cc1cccc(Cl)c1NC(=O)CSCCN(C)C
inactive: dose: 60.0 mg/kg/injection, schedule: Q01DX005 (ip), vehicle: Klucel (hydroxypropylcellulose) (HPC) 106 % of control | dose: 120.0 mg/kg/injection, schedule: Q01DX005 (ip), vehicle: Klucel (hydroxypropylcellulose) (HPC) 103 % of control

CC(C)(C)OC(=O)NC(CCC(=O)O)(Cc1ccccc1)C(=O)NC(CCC(=O)O)(Cc1ccccc1)C(=O)OCc1ccccc1 (centres undefined)
inactive: dose: 6.25 mg/kg/injection, schedule: Q01DX005 (ip), vehicle: saline with Tween-80 98 % of control | dose: 12.5 mg/kg/injection, schedule: Q01DX005 (ip), vehicle: saline with Tween-80 105 % of control | dose: 25.0 mg/kg/injection, schedule: Q01DX005 (ip), vehicle: saline with Tween-80 88 % of control
